This passage reports IC50 results from US9499495B2, “Quinazolines and azaquinazolines as dual inhibitors of RAS/RAF/MEK/ERK and PI3K/AKT/PTEN/mTOR pathways” (Asana Biosciences, LLC, priority 2013, dated 2016).

Experiment [1] has as its target T1, B-RAFV600E (Homo sapiens, UniProt P15056, V600E).
T1 construct: purchased Millipore, USA 14-557
Briefly: B-RAFV600E radiometric assay. The conditions noted are these: read-out: Kinase assay B-Raf. Format: biochemical. The procedure, abridged:
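B-RAFV600E was preincubated 45 min at rt with compound in 1% DMSO. MEK-K97M (0.5 μg), 5 μM final cold ATP and [γ-32P]ATP were then added for 2 h at rt. Phosphorylated MEK was captured on P81 paper and scintillation-counted; IC50 came from a sigmoidal dose-response fit.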

In experiment [2] the target is T2, PI3Kα (Homo sapiens, UniProt P42336).
T2 construct: made in house; host or cells: SF9 cells
Briefly: PI3 Kinase alpha TR-FRET assay. Format: biochemical. As to the method: Compound inhibition for PI3Kα was determined in a homogeneous TR-FRET assay using a PI3Kα assay kit (Millipore, US, Catalog #33-016). The PI3 kinase catalyzes phosphorylation of […] (PIP2) to phosphatidylinositol 3,4,5-trisphosphate (PIP3) in the presence of ATP and Mg^2+. The PIP3 product is detected by displacement of biotin-PIP3 from an energy transfer complex consisting of Europium labeled anti-GST monoclonal antibody, a GST-tagged pleckstrin homology (PH) domain, biotinylated PIP3 and Streptavidin-Allophycocyanin (APC). Excitation of Europium in the complex results in an energy transfer to the APC and a fluorescence emission at 665 nm.
Compounds tested were dissolved in DMSO and directly distributed into 384-well plates at a volume of 0.5 μL. P110/P85a/PIP2 mixture (14.5 μL) was added to compound wells and incubated for 30 min at rt […]. P110/P85a was expressed in SF9 cells and purified in-house. 5 ng P110/P85a was used in the assay. The kinase reaction was started by the addition of ATP. The assay concentrations of both PIP2 and ATP were 40 μM. The reaction mixture was incubated for 30 min and was terminated by the addition of stop mix and detection mix. Fluorescence was measured at 615 and 665 nm upon excitation at 340 nm in a Victor V5 fluorometer (Perkin Elmer, US). The fluorescence emission ratio at 665 to 615 nm, proportional to the kinase activity, was plotted against the compound concentration to generate dose-response curves and IC50 values were determined.

The subject of experiment [3] is pERK in A375 cells. Briefly: In Cell Western (ICW) assay, pERK in A375 cells. The conditions noted are these: Homo sapiens, A-375, 3 h treatment. Format: cell-based. The essentials: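 After a 3 h compound treatment at 37 °C, fixed RKO or A375 cells were probed for phospho-ERK1/2 (T202/Y204), phospho-S6RP or phospho-AKT T308 and detected with a Eu-tagged anti-rabbit antibody (ex 340/em 615 nm), with Hoechst signal as the cell-number correction. Inhibition was referenced to DMSO, and IC50 values came from sigmoidal dose-response curves.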

Experiment [4] concerns A375 cells. Briefly: XTT assay for cell viability, A375 cells. Format: cell-based. The conditions noted are these: Homo sapiens, A-375, 72 h. The procedure, abridged: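 GI50 derived by sigmoidal dose-response fitting of proliferation normalised to DMSO control (100%). Readout: A450 after 2-3 h with XTT (1 mg/ml)/PMS (25 μM), following 72 h compound treatment at 37° C., 5% CO2 of cells plated at 1000-2000 per well the previous day.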

For experiment [5], the target named is T3, mTOR kinase (Homo sapiens, UniProt P42345).
T3 construct: purchased Millipore, US
Nature of the experiment: mTOR kinase TR-FRET assay. Format: biochemical. The procedure, abridged: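 TR-FRET with ULight-p70 S6K (Thr 389) peptide (50 nM) and 20 μM ATP in 50 mM HEPES pH 7.5, 1 mM EGTA, 3 mM MnCl2; compound pre-incubated with enzyme before substrate addition, reaction at rt, EDTA-stopped. Eu anti-phospho antibody read 665/615 nm; IC50 from sigmoidal dose-response fit.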

T3 sequence (P42345 1362-2549 limits assumed): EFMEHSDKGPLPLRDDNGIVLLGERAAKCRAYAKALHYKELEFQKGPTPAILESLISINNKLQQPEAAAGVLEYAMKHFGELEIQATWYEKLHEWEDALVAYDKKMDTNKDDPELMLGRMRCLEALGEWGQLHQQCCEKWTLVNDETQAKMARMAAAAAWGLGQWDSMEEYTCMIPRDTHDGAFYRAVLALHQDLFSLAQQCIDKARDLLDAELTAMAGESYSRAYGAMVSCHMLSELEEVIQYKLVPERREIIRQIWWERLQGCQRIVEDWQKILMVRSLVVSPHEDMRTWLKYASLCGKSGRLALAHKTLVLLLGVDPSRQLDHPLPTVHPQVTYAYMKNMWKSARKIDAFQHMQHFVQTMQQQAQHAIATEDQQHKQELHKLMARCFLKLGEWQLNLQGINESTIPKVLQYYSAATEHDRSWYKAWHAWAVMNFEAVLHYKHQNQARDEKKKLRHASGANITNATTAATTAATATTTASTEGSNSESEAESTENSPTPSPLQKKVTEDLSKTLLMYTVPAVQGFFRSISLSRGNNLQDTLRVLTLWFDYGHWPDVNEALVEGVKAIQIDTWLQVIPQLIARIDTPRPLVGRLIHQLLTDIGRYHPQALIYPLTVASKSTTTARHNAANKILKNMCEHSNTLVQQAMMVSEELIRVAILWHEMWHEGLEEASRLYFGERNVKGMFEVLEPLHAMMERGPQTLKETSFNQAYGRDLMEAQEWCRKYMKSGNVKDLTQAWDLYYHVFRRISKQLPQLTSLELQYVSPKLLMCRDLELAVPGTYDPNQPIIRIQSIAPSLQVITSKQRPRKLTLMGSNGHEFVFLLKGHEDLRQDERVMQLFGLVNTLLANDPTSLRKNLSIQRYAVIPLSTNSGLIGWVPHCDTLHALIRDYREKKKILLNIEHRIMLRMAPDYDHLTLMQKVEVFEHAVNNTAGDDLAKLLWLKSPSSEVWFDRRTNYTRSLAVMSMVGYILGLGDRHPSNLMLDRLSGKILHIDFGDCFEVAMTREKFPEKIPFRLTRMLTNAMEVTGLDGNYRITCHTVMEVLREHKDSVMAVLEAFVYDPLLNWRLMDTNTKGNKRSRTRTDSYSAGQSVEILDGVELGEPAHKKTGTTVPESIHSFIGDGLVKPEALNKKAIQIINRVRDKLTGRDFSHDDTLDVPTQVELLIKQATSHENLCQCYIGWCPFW
T2 sequence (P42336 whole entry, species assumed): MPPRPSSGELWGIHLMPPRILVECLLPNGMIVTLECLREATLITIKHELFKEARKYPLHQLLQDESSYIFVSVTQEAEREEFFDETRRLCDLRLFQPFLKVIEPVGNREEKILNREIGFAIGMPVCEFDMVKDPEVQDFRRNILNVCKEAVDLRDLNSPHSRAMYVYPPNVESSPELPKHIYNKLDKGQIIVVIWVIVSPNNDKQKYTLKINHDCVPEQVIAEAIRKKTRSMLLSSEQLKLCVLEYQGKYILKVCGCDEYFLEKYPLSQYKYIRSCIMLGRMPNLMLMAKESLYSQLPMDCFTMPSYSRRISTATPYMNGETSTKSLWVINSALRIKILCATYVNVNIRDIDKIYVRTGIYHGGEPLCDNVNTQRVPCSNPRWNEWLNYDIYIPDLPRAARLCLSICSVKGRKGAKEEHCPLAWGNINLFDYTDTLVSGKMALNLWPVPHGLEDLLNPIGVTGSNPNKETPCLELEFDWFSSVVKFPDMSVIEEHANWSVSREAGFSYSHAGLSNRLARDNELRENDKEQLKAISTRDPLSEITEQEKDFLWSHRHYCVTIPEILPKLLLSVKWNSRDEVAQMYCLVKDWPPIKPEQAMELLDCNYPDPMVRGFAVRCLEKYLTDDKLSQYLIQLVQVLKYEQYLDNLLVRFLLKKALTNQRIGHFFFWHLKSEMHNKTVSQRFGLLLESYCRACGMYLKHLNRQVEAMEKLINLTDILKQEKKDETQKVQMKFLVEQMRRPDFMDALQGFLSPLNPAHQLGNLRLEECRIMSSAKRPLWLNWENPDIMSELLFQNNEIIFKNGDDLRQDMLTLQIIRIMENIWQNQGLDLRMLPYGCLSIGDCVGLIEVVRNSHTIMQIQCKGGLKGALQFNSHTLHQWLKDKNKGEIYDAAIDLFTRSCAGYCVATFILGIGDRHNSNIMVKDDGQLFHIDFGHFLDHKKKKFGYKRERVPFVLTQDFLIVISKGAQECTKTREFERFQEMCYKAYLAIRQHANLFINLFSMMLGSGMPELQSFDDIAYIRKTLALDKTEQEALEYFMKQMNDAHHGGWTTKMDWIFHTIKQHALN
T2 sequence (P27986 whole entry partner, species assumed): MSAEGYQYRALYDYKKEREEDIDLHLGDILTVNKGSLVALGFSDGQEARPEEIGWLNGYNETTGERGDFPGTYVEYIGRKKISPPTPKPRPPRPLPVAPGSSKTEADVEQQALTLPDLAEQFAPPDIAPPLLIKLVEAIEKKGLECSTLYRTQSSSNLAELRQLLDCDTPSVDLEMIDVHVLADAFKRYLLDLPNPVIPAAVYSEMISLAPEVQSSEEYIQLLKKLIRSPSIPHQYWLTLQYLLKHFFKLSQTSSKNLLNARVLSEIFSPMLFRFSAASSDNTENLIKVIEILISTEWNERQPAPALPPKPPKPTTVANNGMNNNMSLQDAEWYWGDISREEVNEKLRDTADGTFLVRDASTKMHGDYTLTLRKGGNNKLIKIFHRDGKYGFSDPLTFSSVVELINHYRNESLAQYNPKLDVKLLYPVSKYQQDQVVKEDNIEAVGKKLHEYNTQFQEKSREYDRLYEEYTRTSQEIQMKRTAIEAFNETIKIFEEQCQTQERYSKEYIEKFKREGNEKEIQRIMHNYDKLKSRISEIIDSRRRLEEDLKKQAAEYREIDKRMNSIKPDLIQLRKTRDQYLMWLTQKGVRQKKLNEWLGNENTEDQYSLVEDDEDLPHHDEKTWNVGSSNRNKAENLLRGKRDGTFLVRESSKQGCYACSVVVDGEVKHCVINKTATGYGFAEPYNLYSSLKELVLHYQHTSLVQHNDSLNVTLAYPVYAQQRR
T1 sequence (P15056 416-766 V600E limits assumed): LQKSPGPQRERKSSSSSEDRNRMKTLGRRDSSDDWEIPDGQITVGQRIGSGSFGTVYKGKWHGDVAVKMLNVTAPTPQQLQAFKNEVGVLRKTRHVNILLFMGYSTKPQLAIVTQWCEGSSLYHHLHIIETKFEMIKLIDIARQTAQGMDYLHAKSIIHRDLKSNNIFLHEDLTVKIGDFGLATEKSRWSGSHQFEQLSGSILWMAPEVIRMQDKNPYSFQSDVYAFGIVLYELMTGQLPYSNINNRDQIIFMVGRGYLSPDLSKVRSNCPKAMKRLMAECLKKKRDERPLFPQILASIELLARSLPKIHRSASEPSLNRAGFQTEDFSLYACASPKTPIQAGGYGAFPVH

Take `O=S(=O)(CCCF)Nc1cccc(-c2ccc3nc(-c4cnc(NCCCO)nc4)nc(N4CCOCC4)c3n2)c1F` [Example 110, 3-fluoro-N-(2-fluoro-3-(2-(2-((3-hydroxypropyl)amino)pyrimidin-5-yl)-4-morpholinopyrido[3,2-d]pyrimidin-6-yl)phenyl)propane-1-sulfonamide]: the IC50 was in the range of 1 to 100 nM in experiment [1], 100 to 1000 nM in experiment [2], 1 to 100 nM in experiment [3] and 1000 to 10000 nM in experiment [4].

Take `C[C@H]1COCCN1c1nc(-c2ccc(N)nc2)nc2ccc(-c3cccc(NS(=O)(=O)CCCF)c3F)nc12` [Example 127, (S)-N-(3-(2-(6-aminopyridin-3-yl)-4-(3-methylmorpholino)pyrido[3,2-d]pyrimidin-6-yl)-2-fluorophenyl)-3-fluoropropane-1-sulfonamide]: the IC50 in experiment [1] lay in the range of 100 to 1000 nM; in experiment [2], 1 to 100 nM; in experiment [5] it was 1 to 100 nM; in experiment [3] it was 100 to 1000 nM.

Consider `COc1cc(-c2c(F)ccc(NS(=O)(=O)CCCF)c2F)cc2c(N3CCOCC3)nc(-c3cccc4[nH]ncc34)nc12` [Example 81, N-(3-(2-(1H-indazol-4-yl)-8-methoxy-4-morpholinoquinazolin-6-yl)-2,4-difluorophenyl)-3-fluoropropane-1-sulfonamide], for which the IC50 in experiment [1] lay in the range of 1 to 100 nM; in experiment [2], 100 to 1000 nM; in experiment [3], 1 to 100 nM; in experiment [4] it was 100 to 1000 nM.

Turning to `NCCOc1cc(-c2cccc(NS(=O)(=O)CCCF)c2F)cc2c(N3CCOCC3)nc(-c3ccc(N)nc3)nc12` [Example 56, N-(3-(8-(2-aminoethoxy)-2-(6-aminopyridtn-3-yl)-4-morpholinoquinazolin-6-yl)-2-fluorophenyl)-3-fluoropropane-1-sulfonamide], the IC50 in experiment [1] lay within 1 to 100 nM; in experiment [2], 100 to 1000 nM; in experiment [5] it was 1 to 100 nM; in experiment [3], 1 to 100 nM.

Take `CCCS(=O)(=O)Nc1cccc(-c2cc(OC)c3nc(-c4ccc(NCCN)nc4)nc(N4CCOCC4)c3c2)c1F` [Example 3]: the IC50 in experiment [1] fell in the range of 1 to 100 nM; in experiment [2], 100 to 1000 nM; in experiment [3] it was 1 to 100 nM; in experiment [4] it was 1000 to 10000 nM.

Regarding `CCCS(=O)(=O)Nc1cccc(-c2cc(OC)c3nc(-c4cccc5[nH]ncc45)nc(N4CCOCC4)c3c2)c1F` [Example 2, N-(3-(2-(1H-indazol-4-yl)-8-methoxy-4-morpholinoquinazolin-6-yl)-2-fluorophenyl) propane-1-sulfonamide], the IC50 in experiment [1] lay in the range of 1 to 100 nM; in experiment [2], 100 to 1000 nM; in experiment [3] it was 100 to 1000 nM; in experiment [4], 100 to 1000 nM.

As for `Cc1nc(N)ncc1-c1nc(N2CCOC[C@@H]2C)c2nc(-c3cccc(NS(=O)(=O)c4cc(F)ccc4F)c3F)ccc2n1` [Example 132, (S)-N-(3-(2-(2-amino-4-methylpyrimidin-5-yl)-4-(3-methylmorpholino)pyrido[3,2-d]pyrimidin-6-yl)-2-fluorophenyl)-2,5-difluorobenzenesulfonamide], the IC50 in experiment [1] lay within 1 to 100 nM; in experiment [2], 1 to 100 nM; in experiment [5], 100 to 1000 nM; in experiment [3], 100 to 1000 nM.

As for `Cc1cc(N)ncc1-c1nc(N2CCOC[C@@H]2C)c2nc(-c3cccc(NS(=O)(=O)CCCF)c3F)ccc2n1` [Example 130, (S)-N-(3-(2-(6-amino-4-methylpyridin-3-yl)-4-(3-methylmorpholino)pyrido[3,2-d]pyrimidin-6-yl)-2-fluorophenyl)-3-fluoropropane-1-sulfonamide], the IC50 is 100 to 1000 nM in experiment [1], 1 to 100 nM in experiment [2], 100 to 1000 nM in experiment [5] and 100 to 1000 nM in experiment [3].

Take `C[C@H]1COCCN1c1nc(-c2cnc(N)nc2)nc2ccc(-c3cccc(NS(=O)(=O)CCCF)c3F)nc12` [Example 128, (S)-N-(3-(2-(2-aminopyrimidin-5-yl)-4-(3-methylrnorpholino)pyrido[3,2-d]pyrimidin-6-yl)-2-fluorophenyl)-3-fluoropropane-1-sulfonamide]: the IC50 in experiment [1] lay in the range of 1 to 100 nM; in experiment [2], 1 to 100 nM; in experiment [5], 100 to 1000 nM; in experiment [3] it was 100 to 1000 nM.
